Where two headings read alike, the source gives them in different places.
Tests used:
SUDHL5 (DLBCL) cells = assay: Growth inhibition of lymphoma cells (CCK-8), SUDHL5; type: cell-based; conditions: Homo sapiens, read-out: LC50 SUDHL5 (DLBCL)
Method: (§1) Cell growth-inhibiting effects on the DLBCL-derived cells and the ALL-derived cells were evaluated by measuring the absorbance of cell counting kit-8 (CCK-8) dye. During the last 3 hours of the 48 hours, […] of a CCK-8 dye was added to each plate and then cultured.
(§2) All data are expressed as the mean (±SD) of three independent experiments.

[1] = system: human umbilical vein endothelial cells (HUVECs); assay: Number of viable HUVECs treated with compound; type: cell-based; conditions: FIG. 8
PI3K p110β = target: T1, PI3K p110β (Homo sapiens, UniProt P42338); assay: PI3K kinase activity test (Adapta kinase assay), p110β; type: biochemical
T1 construct: purchased Thermo Fisher Scientific Inc. (SelectScreen Services)
Method: (§3) An experiment was conducted using a homogeneous, fluorescence-based immunoassay, which is Adapta kinase assay. SelectScreen™ Services available from Thermo Fisher Scientific Inc. was carried out.

SupB15 (ALL) cells = assay: Growth inhibition of leukemia cells (CCK-8), SupB15; type: cell-based; conditions: Homo sapiens, read-out: LC50 SupB15 (ALL)
Method: as §1, §2

rats = assay: Single dose toxicity test in rats; type: in vivo, rat; conditions: single oral dose, female rats, observed day 1 to day 2; approximate lethal dose
Method: The compound of Formula 7 and the compound of Formula 8 were orally administered to eight six-week-old female rats, to observe the single dose oral toxicity thereof and to obtain an approximate lethal dose. The dosage was set at 10 mL/kg, and the dosage for each rat was calculated based on body weight. Each compound was administered at doses of 100 mg/kg, 300 mg/kg, 900 mg/kg, and 1,500 mg/kg, and general symptoms were observed once a day from day 1 to day 2 after administration.

PI3K p110δ = target: T2, PI3K p110δ (Homo sapiens, UniProt O00329); assay: PI3K kinase activity test (Adapta kinase assay), p110δ; type: biochemical; conditions: for IC50: Adapta kinase assay; for ratio PI3Kα/PI3Kδ, as IC50 values / ratio PI3Kβ/PI3Kδ, as IC50 values / ratio of PI3Kγ/PI3Kδ: selectivity, ratio of IC50 values
T2 construct: purchased Thermo Fisher Scientific Inc. (SelectScreen Services)
Method: as §3

[2] = system: diffuse large B-cell lymphoma (DLBCL) and acute lymphocytic leukemia (ALL) cells; assay: Apoptosis of DLBCL and ALL cells by flow cytometry (Annexin V-FITC/PI); type: cell-based; conditions: 50 μM, 24 hours, FIG. 5
Method: The cells were washed with PBS, and then suspended in a binding buffer. 5 μl of an Annexin V-FITC stock solution (Becton Dickinson Science, Inc) and 5 μl of PI (20 μg/ml) were added thereto, followed by incubation at room temperature for 15 minutes with light-shielding, and then the target material was quantified on FACScan™ (Becton Dickinson) by flow cytometry.

PI3K p110α = target: T3, PI3K p110α (Homo sapiens, UniProt P42336); assay: PI3K kinase activity test (Adapta kinase assay), p110α; type: biochemical
T3 construct: purchased Thermo Fisher Scientific Inc. (SelectScreen Services)
Method: as §3

[3] = system: human umbilical vein endothelial cells (HUVECs); assay: Angiogenesis inhibition, HUVEC tube formation; type: cell-based; conditions: HUVECs on basement membrane matrix, 18 hours; FIG. 7
Method: After 18 hours, tube formation was photographed using a Cytation™ 5 fluorescence microscope (BioTek), and the number of areas formed by branch points was counted using software (see FIG. 6).

Phospho-Akt (Ser473) = assay: AKT (Ser473) phosphorylation in leukemia and lymphoma cell lines (immunoblotting); type: cell-based; conditions: 1 μM, 1 hour; SUDHL 5, SUDHL 10, CCRF-SB, MOLT4; FIG. 2
From the text: Subsequently, cells were lysed and fractionated according to size, followed by immunoblotting with antibodies directed against Phospho-Akt (Ser473).

MOLT4 (ALL) cells = assay: Growth inhibition of leukemia cells (CCK-8), MOLT4; type: cell-based; conditions: Homo sapiens, read-out: LC50 MOLT4 (ALL)
Method: as §1, §2

PI3K p110γ = target: T4, PI3K p110γ (Homo sapiens, UniProt P48736); assay: PI3K kinase activity test (Adapta kinase assay), p110γ; type: biochemical
T4 construct: purchased Thermo Fisher Scientific Inc. (SelectScreen Services)
Method: as §3

[4] = system: diffuse large B-cell lymphoma (DLBCL) and acute lymphocytic leukemia (ALL) cells; assay: Apoptosis of DLBCL and ALL cells by SDS-PAGE / immunoblotting (caspase 3, 9, PARP cleavage); type: cell-based; conditions: 50 μM, 36 hours; FIG. 4
Method: Immunoblotting analysis was performed using antibodies of these, and glyceraldehyde-3-phosphate dehydrogenase (GAPDH) was used as a loading control.

T2 sequence (O00329 whole entry): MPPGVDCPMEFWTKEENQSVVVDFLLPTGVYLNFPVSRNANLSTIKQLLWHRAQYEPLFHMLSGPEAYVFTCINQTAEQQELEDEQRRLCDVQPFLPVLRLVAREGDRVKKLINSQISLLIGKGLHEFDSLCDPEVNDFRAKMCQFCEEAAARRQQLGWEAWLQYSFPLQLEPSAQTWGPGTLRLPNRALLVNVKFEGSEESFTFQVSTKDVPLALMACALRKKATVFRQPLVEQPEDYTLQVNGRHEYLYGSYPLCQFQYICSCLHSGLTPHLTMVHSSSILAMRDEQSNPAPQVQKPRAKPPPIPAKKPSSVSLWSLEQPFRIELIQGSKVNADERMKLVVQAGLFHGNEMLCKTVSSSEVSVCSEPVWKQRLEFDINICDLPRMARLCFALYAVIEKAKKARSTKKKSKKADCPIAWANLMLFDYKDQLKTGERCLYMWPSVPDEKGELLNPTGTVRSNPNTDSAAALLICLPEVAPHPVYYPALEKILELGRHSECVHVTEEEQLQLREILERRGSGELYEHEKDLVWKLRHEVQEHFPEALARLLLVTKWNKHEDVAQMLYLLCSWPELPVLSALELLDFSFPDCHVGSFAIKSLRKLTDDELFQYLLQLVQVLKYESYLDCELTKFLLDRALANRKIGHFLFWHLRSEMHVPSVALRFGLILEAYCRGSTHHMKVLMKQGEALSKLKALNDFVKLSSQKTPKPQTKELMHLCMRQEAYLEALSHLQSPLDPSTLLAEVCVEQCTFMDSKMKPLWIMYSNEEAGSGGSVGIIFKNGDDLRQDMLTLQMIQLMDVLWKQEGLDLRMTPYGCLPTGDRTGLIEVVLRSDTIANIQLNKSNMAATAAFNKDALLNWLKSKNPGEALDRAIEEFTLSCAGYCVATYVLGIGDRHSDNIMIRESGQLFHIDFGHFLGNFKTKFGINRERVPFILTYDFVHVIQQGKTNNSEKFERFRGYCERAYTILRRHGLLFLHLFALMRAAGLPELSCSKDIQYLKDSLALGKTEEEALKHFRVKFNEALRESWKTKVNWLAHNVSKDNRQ
T2 sequence (P27986 whole entry partner): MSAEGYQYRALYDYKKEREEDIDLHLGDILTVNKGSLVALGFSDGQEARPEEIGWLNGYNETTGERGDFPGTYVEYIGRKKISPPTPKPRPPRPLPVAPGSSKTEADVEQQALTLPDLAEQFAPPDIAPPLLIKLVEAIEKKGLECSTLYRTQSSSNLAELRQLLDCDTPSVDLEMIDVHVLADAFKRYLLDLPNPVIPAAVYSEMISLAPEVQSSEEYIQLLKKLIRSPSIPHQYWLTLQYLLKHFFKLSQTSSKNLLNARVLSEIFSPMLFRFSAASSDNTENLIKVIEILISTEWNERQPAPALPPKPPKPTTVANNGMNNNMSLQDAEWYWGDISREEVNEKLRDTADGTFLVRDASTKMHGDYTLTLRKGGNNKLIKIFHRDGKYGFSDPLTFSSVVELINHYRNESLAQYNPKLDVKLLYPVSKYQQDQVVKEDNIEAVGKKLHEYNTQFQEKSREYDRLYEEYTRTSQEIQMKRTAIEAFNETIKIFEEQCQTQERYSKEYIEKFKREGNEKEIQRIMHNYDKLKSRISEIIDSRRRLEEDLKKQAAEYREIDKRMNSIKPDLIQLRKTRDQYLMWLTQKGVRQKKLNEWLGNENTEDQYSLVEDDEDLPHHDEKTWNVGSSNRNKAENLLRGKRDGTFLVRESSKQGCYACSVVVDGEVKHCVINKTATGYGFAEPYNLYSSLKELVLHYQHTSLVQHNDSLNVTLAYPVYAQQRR
T4 sequence (P48736 whole entry): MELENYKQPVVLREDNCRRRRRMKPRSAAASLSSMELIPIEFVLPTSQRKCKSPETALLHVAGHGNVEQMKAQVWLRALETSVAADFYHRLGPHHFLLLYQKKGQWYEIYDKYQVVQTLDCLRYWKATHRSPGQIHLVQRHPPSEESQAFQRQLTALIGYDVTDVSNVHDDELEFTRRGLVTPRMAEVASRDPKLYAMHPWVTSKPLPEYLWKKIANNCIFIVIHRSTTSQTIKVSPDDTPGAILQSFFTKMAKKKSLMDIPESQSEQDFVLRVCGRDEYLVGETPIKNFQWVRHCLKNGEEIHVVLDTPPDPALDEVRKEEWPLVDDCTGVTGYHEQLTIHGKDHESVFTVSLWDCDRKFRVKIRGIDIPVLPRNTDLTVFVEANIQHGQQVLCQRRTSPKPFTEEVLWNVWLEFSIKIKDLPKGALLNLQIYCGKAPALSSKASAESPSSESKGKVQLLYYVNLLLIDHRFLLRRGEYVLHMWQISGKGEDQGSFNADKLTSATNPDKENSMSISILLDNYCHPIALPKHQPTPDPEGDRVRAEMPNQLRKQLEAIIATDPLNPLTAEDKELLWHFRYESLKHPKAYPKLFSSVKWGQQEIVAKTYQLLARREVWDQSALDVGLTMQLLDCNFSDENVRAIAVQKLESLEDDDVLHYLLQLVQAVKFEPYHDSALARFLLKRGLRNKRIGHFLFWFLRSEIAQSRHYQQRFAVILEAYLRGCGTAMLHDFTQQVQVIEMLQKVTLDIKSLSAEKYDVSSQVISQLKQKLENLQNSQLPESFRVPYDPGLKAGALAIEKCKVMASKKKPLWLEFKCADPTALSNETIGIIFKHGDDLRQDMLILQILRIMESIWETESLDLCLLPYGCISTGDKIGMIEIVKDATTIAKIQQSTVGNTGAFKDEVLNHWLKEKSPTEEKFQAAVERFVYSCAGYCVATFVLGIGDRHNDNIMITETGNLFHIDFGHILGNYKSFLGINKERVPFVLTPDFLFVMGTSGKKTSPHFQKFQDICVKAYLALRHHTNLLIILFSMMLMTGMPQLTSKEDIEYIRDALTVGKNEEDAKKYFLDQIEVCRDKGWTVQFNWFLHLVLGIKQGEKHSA
T1 sequence (P42338 whole entry): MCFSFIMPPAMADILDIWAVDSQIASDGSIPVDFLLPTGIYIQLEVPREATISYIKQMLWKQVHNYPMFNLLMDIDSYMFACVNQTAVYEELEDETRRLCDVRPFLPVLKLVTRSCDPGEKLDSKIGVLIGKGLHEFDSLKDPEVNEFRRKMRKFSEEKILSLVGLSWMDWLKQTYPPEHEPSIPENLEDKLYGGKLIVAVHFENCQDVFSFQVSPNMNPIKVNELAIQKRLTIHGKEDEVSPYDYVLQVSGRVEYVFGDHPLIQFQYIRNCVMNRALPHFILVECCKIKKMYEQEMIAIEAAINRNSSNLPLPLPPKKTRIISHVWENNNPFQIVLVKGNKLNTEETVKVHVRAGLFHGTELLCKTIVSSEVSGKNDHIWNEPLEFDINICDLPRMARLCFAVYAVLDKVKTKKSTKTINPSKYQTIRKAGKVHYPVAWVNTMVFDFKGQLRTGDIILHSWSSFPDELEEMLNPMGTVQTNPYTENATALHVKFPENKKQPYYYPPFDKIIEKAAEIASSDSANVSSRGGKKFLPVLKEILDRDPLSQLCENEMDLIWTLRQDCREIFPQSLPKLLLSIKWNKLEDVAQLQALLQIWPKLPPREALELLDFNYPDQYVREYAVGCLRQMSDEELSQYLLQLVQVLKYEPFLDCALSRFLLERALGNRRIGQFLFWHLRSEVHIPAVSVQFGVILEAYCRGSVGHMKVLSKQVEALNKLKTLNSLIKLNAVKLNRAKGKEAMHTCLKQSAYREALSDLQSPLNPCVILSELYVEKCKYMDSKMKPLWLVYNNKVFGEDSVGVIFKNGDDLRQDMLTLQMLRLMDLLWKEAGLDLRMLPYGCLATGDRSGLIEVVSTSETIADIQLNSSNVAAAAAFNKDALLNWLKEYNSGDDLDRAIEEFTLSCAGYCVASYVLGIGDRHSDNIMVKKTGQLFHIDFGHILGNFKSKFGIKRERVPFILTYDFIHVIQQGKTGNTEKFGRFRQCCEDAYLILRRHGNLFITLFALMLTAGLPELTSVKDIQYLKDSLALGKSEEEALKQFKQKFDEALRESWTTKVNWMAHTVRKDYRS
T1 sequence (P27986 whole entry partner): as the sequence (P27986 whole entry partner) above
T3 sequence (P42336 whole entry): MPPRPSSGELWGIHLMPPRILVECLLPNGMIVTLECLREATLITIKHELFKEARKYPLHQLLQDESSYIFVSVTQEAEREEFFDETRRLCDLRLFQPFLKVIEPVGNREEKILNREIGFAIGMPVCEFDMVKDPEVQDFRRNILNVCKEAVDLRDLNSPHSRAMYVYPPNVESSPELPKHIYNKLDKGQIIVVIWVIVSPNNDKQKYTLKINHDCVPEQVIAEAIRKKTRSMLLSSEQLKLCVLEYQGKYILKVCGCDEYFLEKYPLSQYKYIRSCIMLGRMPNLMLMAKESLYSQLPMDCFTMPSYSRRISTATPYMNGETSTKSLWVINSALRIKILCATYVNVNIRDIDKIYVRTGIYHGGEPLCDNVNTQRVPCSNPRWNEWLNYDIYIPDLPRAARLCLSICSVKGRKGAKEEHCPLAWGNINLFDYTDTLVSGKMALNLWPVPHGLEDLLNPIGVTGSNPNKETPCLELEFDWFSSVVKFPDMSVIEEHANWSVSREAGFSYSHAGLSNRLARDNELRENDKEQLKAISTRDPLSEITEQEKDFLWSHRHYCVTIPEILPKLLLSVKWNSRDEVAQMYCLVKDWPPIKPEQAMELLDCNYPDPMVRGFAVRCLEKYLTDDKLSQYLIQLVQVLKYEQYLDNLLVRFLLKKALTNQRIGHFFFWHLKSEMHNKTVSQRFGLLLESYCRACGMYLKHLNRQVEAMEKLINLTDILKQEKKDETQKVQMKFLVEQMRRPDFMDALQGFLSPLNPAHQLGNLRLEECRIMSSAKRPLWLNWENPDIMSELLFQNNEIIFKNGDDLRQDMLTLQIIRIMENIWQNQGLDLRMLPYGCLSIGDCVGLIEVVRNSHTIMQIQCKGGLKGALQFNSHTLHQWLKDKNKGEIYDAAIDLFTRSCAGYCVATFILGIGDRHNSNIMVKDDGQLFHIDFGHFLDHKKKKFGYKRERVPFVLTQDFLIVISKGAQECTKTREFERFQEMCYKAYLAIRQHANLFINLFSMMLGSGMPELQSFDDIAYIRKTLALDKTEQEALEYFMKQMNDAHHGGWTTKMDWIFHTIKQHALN
T3 sequence (P27986 whole entry partner): as the sequence (P27986 whole entry partner) above

Which CC50 (SUDHL5 (DLBCL) cells; SU-DHL-5, 48 h) does the source give for `O=c1c2c(F)cccc2nc([C@@H](Nc2ncnc3nc[nH]c23)C2CC2)n1-c1ccccc1` [Formula 7, (S)-2-(((7H-purin-6-yl)amino)(cyclopropyl)methyl)-5-fluoro-3-phenylquinazolin-4(3H)-one] here?
Its CC50 is 1100 nM.

And the “cytotoxicity to HUVECs (number of viable cells)” value [1]?
The value was “did not significantly affect the cytotoxicity”.

What about the IC50 (PI3K p110β) of the same compound?
Its IC50 is 105 nM.

And the CC50 (SupB15 (ALL) cells; SUP-B15, 48 h)?
The CC50 was > 20 µM.

And the lethal dose (rats)?
The lethal dose was > 1,500 mg/kg.

What about the IC50 (PI3K p110δ) of the same compound?
The IC50 was 0.5 nM.

What about the “ratio PI3Kα/PI3Kδ, as IC50 values” (PI3K p110δ) of the same compound?
The value was 412.

What about the “ratio PI3Kβ/PI3Kδ, as IC50 values” (PI3K p110δ) of the same compound?
Its value is 210.

What about the “ratio of PI3Kγ/PI3Kδ” value (PI3K p110δ) of the same compound?
The value was 51.

And the “apoptosis induction compared with idelalisib (flow cytometry)” value [2]?
The value was “more effectively induced apoptosis than the comparative drug”.

What about the IC50 (PI3K p110α) of the same compound?
The IC50 was 206 nM.

And the “inhibition of angiogenesis (tube formation) compared with idelalisib” value [3]?
The value was “inhibited angiogenesis more than the comparative drug”.

What about the “reduction of AKT (Ser473) phosphorylation” value (Phospho-Akt (Ser473)) of the same compound?
Its value is “induced the reduction of AKT phosphorylation”.

What about the CC50 (MOLT4 (ALL) cells; MOLT-4, 48 h) of the same compound?
Its CC50 is 13.7 µM.

What about the IC50 (PI3K p110γ) of the same compound?
Its IC50 is 25.7 nM.

And the “apoptosis compared with comparative drug idelalisib (SDS-PAGE)” value [4]?
The value was “apoptosis occurred more actively”.

What about the “apoptosis induction (SDS-PAGE, immunoblotting)” value [4] of the same compound?
The value was “induced apoptosis”.

With `Cc1cccc2nc([C@@H](Nc3ncnc4nc[nH]c34)C3CC3)n(-c3ccccc3)c(=O)c12` [Formula 8, (S)-2-(((7H-purin-6-yl)amino)(cyclopropyl)methyl)-5-methyl-3-phenylquinazolin-4(3H)-one] as the compound, how does the CC50 (SUDHL5 (DLBCL) cells; SU-DHL-5, 48 h) read?
The CC50 was 900 nM.

And the “cytotoxicity to HUVECs (number of viable cells)” value [1]?
Its value is “did not significantly affect the cytotoxicity”.

What about the IC50 (PI3K p110β) of the same compound?
Its IC50 is 162 nM.

What about the CC50 (SupB15 (ALL) cells; SUP-B15, 48 h) of the same compound?
The CC50 was 16.5 µM.

And the lethal dose (rats)?
Its lethal dose is 1,500 mg/kg.

And the IC50 (PI3K p110δ)?
The IC50 was 0.09 nM.

What about the “ratio PI3Kα/PI3Kδ, as IC50 values” (PI3K p110δ) of the same compound?
The value was 1,488.

And the “ratio PI3Kβ/PI3Kδ, as IC50 values” (PI3K p110δ)?
The value was 1,800.

What about the “ratio of PI3Kγ/PI3Kδ” value (PI3K p110δ) of the same compound?
Its value is 95.

What about the “apoptosis induction compared with idelalisib (flow cytometry)” value [2] of the same compound?
The value was “more effectively induced apoptosis than the comparative drug”.

What about the IC50 (PI3K p110α) of the same compound?
Its IC50 is 134 nM.

And the “inhibition of angiogenesis (tube formation) compared with idelalisib” value [3]?
Its value is “inhibited angiogenesis more than the comparative drug”.

And the “reduction of AKT (Ser473) phosphorylation” value (Phospho-Akt (Ser473))?
The value was “induced the reduction of AKT phosphorylation”.

And the CC50 (MOLT4 (ALL) cells; MOLT-4, 48 h)?
Its CC50 is 4.9 µM.

What about the IC50 (PI3K p110γ) of the same compound?
Its IC50 is 8.6 nM.

What about the “apoptosis compared with comparative drug idelalisib (SDS-PAGE)” value [4] of the same compound?
Its value is “apoptosis occurred more actively”.

What about the “apoptosis induction (SDS-PAGE, immunoblotting)” value [4] of the same compound?
Its value is “induced apoptosis”.

Which results are given for `CC[C@H](Nc1ncnc2[nH]cnc12)c1nc2cccc(F)c2c(=O)n1-c1ccccc1` [Idelalisib, idelalisib, reference compound]?
CC50 (SUDHL5 (DLBCL) cells; SU-DHL-5, 48 hours, CCK-8): 3000 nM; CC50 (SupB15 (ALL) cells; SUP-B15, 48 hours, CCK-8): > 20 µM; CC50 (MOLT4 (ALL) cells; MOLT-4, 48 hours, CCK-8): > 20 µM

— patent US10577369B2, “Substituted quinazolinones for inhibiting PI3K” (priority 2016, dated 2020)
